Laboratory results: patent publication US8242118B2, “Arylsulfonamide derivatives for use as CCR3 antagonists in the treatment of inflammatory and immunological disorders” (Axikin Pharmaceuticals Inc., priority 2001, dated 2012)

Legend:
Human CCR3 = biological target: T1, Human CCR3 (Homo sapiens, UniProt P51677); assay: Calcium mobilization assay, eotaxin-stimulated; type: cell-based; conditions: human CCR3-transformed K562 cells, 10 nM eotaxin; compounds of about 40 to 90% purity; read-out: Activity grade Ca2+ (IC50 class)
T1 construct: The cloned CCR3 cDNA was constructed with pcDNA3 vector and transfected into a IC562 cell line; expressed in transfected cells
T1 sequence (P51677 1-355): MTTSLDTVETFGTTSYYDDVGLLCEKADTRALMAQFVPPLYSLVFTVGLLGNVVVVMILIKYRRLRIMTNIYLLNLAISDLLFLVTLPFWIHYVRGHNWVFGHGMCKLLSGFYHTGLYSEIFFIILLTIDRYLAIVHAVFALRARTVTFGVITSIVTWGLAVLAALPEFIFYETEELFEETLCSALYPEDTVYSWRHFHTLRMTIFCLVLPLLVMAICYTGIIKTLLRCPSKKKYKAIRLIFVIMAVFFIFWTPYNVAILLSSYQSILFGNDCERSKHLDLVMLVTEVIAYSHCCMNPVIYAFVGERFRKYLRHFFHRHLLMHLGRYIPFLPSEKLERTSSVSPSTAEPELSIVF
Outline: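 K562 cells transfected with human CCR3, pretreated 20–24 h with 5 mM sodium butyrate, loaded with Fluo-3AM. Compound added 10 min before stimulation with 10 nM (final) eotaxin; cytoplasmic calcium read over 60 s by FDSS, IC50 from inhibition curve.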

| SMILES | IC50 (Human CCR3) | melting point |
| --- | --- | --- |
| Cc1cc(Oc2cc(Cl)cc(Cl)c2)c(S(=O)(=O)N2CCNCC2)cc1[N+](=O)[O-].Cl [Example 1-45] | < 1000 nM | 168 °C |
| Cc1cc(C)cc(Oc2cc(C(F)(F)F)ccc2S(=O)(=O)N2CCNCC2)c1.Cl [Example 1-46] | > 10000 nM | 250 to 251 °C |
| COc1cc(Oc2cc(C)cc(C)c2)c(S(=O)(=O)N2CCNCC2)cc1[N+](=O)[O-].Cl [Example 1-47] | > 10000 nM | 188 °C |
| O=[N+]([O-])c1ccc(Oc2cc(Cl)cc(Cl)c2)c(S(=O)(=O)N2CC3CCCNC3C2)c1 (centres unmarked) [Example 1-48] | < 1000 nM | 170 °C |
| Cl.O=S(=O)(c1cc(F)ccc1Oc1cc(Cl)cc(Cl)c1)N1CCNCC1 [Example 1-51] | < 1000 nM | 145 °C |
| Cc1cc(C)cc(Oc2ccc([N+](=O)[O-])cc2S(=O)(=O)N2CC(C)NCC2C)c1.Cl (centres unmarked) [Example 1-54] | < 1000 nM | 159 °C |
| Cl.O=S(=O)(c1cc(Cl)ccc1Oc1cc(Cl)cc(Cl)c1)N1CCNCC1 [Example 1-56] | < 1000 nM | 255 to 257 °C |
| Cl.O=S(=O)(c1cc(Br)ccc1Oc1cc(Cl)cc(Cl)c1)N1CCNCC1 [Example 1-57] | < 1000 nM | 269 to 271 °C |
| Cc1cc(Oc2ccc([N+](=O)[O-])cc2S(=O)(=O)N2CCNCC2)ccc1Cl.Cl [Example 1-60] | 1000 to 10000 nM | 204 °C |
| Cc1ccc(C)c(Oc2ccc([N+](=O)[O-])cc2S(=O)(=O)N2CCNCC2)c1C.Cl [Example 1-61] | 1000 to 10000 nM | 220 °C |
| Cc1cccc(Oc2ccc([N+](=O)[O-])cc2S(=O)(=O)N2CCNCC2)c1C.Cl [Example 1-62] | < 1000 nM | 142 °C |
| Cc1ccc(Oc2ccc([N+](=O)[O-])cc2S(=O)(=O)N2CCNCC2)cc1C.Cl [Example 1-63] | < 1000 nM | 142 °C |
| Cc1ccc(C)c(Oc2ccc([N+](=O)[O-])cc2S(=O)(=O)N2CCNCC2)c1.Cl [Example 1-64] | < 1000 nM | 141 °C |
| Cc1cc(C)c(C)c(Oc2ccc([N+](=O)[O-])cc2S(=O)(=O)N2CCNCC2)c1.Cl [Example 1-65] | < 1000 nM | 187 °C |
| Cc1ccc(C(C)C)c(Oc2ccc([N+](=O)[O-])cc2S(=O)(=O)N2CCNCC2)c1.Cl [Example 1-66] | 1000 to 10000 nM | 193 °C |
| Cl.O=[N+]([O-])c1ccc(Oc2c(F)c(F)cc(F)c2F)c(S(=O)(=O)N2CCNCC2)c1 [Example 1-74] | < 1000 nM | 104 °C |
| O=[N+]([O-])c1ccc(Oc2cc(Br)cc(Br)c2)c(S(=O)(=O)N2CCNCC2)c1 [Example 1-76] | < 1000 nM | 205 °C |
| Cl.O=[N+]([O-])c1ccc(Oc2cc(Cl)cc(Cl)c2F)c(S(=O)(=O)N2CCNCC2)c1 [Example 1-77] | < 1000 nM | 263 °C |
| Cc1cc(Oc2ccc([N+](=O)[O-])cc2S(=O)(=O)N2CCNCC2)cc(C)c1Cl [Example 1-79] | < 1000 nM | 178 to 179 °C |
| Cc1ccc(Cl)c(Oc2ccc([N+](=O)[O-])cc2S(=O)(=O)N2CCNCC2)c1 [Example 1-80] | < 1000 nM | 166 to 167 °C |
| O=[N+]([O-])c1ccc(Oc2cc(Cl)ccc2Cl)c(S(=O)(=O)N2CCNCC2)c1 [Example 1-84] | < 1000 nM | 179 to 180 °C |
| Cl.O=[N+]([O-])c1ccc(Oc2cc(Cl)cc(Cl)c2Cl)c(S(=O)(=O)N2CCNCC2)c1 [Example 1-86] | < 1000 nM | 188 to 189 °C |
| O=C(O)C1CNCCN1S(=O)(=O)c1cc([N+](=O)[O-])ccc1Oc1cc(Cl)cc(Cl)c1 (centres unmarked) [Example 1-87] | < 1000 nM | 240 to 241 °C |
| Cc1cc(C)cc(Oc2ccc([N+](=O)[O-])cc2S(=O)(=O)N2CCN(CCO)CC2)c1 [Example 1-88] | < 1000 nM | 163 to 164 °C |
| Cl.O=[N+]([O-])c1ccc(Oc2cc(Cl)cc(Cl)c2)c(S(=O)(=O)N2CCCNCC2)c1 [Example 1-91] | < 1000 nM | 261 to 263 °C |
| Cl.N[C@H]1CCN(S(=O)(=O)c2cc([N+](=O)[O-])ccc2Oc2cc(Cl)cc(Cl)c2)C1 [Example 1-100] | < 1000 nM | 256 to 258 °C |
| Cc1cc(C)cc(Oc2ccc(NC(=O)Cc3ccccc3)cc2S(=O)(=O)N2CCNCC2)c1 [Example 7-1, N-[4-(3,5-dimethylphenoxy)-3-(1-piperazinylsulfonyl)phenyl]-2-phenylacetamide] | > 10000 nM | 228 to 230 °C |
| CN(CCN1CCCCC1)S(=O)(=O)c1cc([N+](=O)[O-])ccc1Sc1cc(Cl)cc(Cl)c1 [Example 26-1, 2-[(3,5-dichlorophenyl)sulfanyl]-N-methyl-5-nitro-N-[2-(1-piperidinyl)ethyl]benzenesulfonamide] | < 1000 nM | 113 to 114 °C |
